In general, IC50 refers to the concentration needed to halve the response being measured. Usually EC50 stands for the concentration at which the effect is half-maximal. One may read the Emax as the size of the effect at its maximum, as opposed to the concentration needed. A word on the half-life: it is how long it takes for the measured level to halve.

Series [1] addresses T1, Nuclear hormone receptor isoform A (Strongyloides stercoralis, UniProt A0A0K0EQJ4).
T1 sequence (A0A0K0EQJ4 whole entry): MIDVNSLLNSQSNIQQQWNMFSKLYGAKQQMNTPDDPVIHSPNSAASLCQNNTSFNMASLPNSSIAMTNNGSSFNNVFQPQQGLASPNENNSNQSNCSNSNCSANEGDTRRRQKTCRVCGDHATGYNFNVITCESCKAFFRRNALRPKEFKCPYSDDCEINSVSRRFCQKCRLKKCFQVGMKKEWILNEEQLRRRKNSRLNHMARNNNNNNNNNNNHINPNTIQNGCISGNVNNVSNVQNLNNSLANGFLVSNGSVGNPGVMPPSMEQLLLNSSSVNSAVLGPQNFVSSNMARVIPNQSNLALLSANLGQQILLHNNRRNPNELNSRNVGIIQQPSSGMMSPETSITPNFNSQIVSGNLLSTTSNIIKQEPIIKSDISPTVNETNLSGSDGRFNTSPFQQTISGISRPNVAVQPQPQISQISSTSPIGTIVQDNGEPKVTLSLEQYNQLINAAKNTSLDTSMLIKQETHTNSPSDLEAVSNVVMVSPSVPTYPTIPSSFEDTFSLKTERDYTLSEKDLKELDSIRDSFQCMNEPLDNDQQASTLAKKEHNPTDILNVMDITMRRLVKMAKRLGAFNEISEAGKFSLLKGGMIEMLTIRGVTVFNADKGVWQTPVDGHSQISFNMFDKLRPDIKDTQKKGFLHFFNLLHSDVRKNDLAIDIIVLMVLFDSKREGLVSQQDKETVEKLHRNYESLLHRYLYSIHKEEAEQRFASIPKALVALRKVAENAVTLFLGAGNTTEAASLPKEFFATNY
Kind of series: Antagonist activity at GST-tagged Strongyloides stercoralis DAF-12 LBD incubated for 0.5 hrs in presence of biotinylated SRC1 and SRC2 by Alphascreen assay. On the technique in general: Bead proximity is the source of the signal in Alpha formats.

Series [2] concerns the target T1, Nuclear hormone receptor isoform A. Put plainly: Agonist activity at GST-tagged Strongyloides stercoralis DAF-12 LBD incubated for 0.5 hrs in presence of biotinylated SRC1 and SRC2 by Alphascreen assay.
The target of series [3] is T2, Nuclear hormone receptor isoform A (Strongyloides stercoralis) (UniProt A0A0K0EQJ4).
T2 sequence (whole entry): T1 sequence (A0A0K0EQJ4 whole entry)
Kind of series: Partial agonist activity at GST-tagged Strongyloides stercoralis DAF-12 LBD incubated for 0.5 hrs in presence of biotinylated SRC1 and SRC2 by Alphascreen assay relative to control.

For series [4], the target named is T1, Nuclear hormone receptor isoform A. Kind of series: Partial agonist activity at GST-tagged Strongyloides stercoralis DAF-12 LBD incubated for 0.5 hrs in presence of biotinylated SRC1 and SRC2 by Alphascreen assay.
The nature of series [5]: Kinetic solubility of compound at pH 7.4 by HPLC/MS analysis. It is filed as physicochemical. The note with it: buffer, read-out: Kinetic_solubility.
For series [6], the target named is T2, Nuclear hormone receptor isoform A (Strongyloides stercoralis). Kind of series: Agonist activity at GST-tagged Strongyloides stercoralis DAF-12 LBD incubated for 0.5 hrs in presence of biotinylated SRC1 and SRC2 by Alphascreen assay relative to control. To be noted: filed as agonist.
Series [7] is described as follows: Drug metabolism in human liver microsome assessed as (2S,6R)-6-((5S,10S,13R,17R)-3-hydroxy-10,13-dimethyl-2,3,4,5,6,9,10,11,12,13,14,15,16,17-tetradecahydro-1H-cyclopenta[a]phenanthren-17-yl)-2-methylheptanoic acid formation by measuring retention time incubated for 90 mins in presence of NADPH by LC-MS/MS analysis. It is filed as ADME. The note with it: microsomes, 1.5 h. On the technique in general: Liver microsomes are vesicles of endoplasmic reticulum, rich in cytochrome P450 enzymes.

Series [8] deals with T1, Nuclear hormone receptor isoform A. Kind of series: Agonist activity at Strongyloides stercoralis DAF-12 LBD transfected in CHO cells. It is filed as cell-based.
Series [9] can be described thus: Metabolic stability in human liver microsome assessed as half life measured for 30 mins by LC-MS analysis. The note with it: human liver microsomes. It counts as ADME.
Series [10] can be described thus: Drug metabolism in human liver microsome incubated for 90 mins in presence of NADPH by LC-MS/MS analysis. The note with it: microsomes, 1.5 h. It counts as ADME.
The subject of another series is HepG2. Put plainly: Cytotoxicity against human HepG2 cells assessed as reduction in cell viability incubated for 4 hrs by celltiter glo assay. It counts as toxicity, cell-based. The note with it: hepg2, 4 h. In general terms: Cellular ATP, detected with luciferase, serves as a proxy for viable cell number.
Series [11] can be described thus: Metabolic stability in human liver microsome assessed as parent compound remaining measured for 30 mins by LC-MS analysis. It is filed as ADME. To be noted: human liver microsomes, read-out: Stability.

Values after ≈ are worked out from the molar mass of the structure shown. Where only a bound is given, the exact number is not on record here.

Regarding `C[C@H](CCc1nnn(C)n1)[C@H]1CC[C@H]2C3=CC[C@H]4CC(=O)CC[C@]4(C)C3CC[C@]12C` (stereo partly specified), the 50% inhibitory concentration (IC50) in series [1] worked out at 10 µM. The EC50 in [2] was over 100 µM.

Turning to `CNC(=O)[C@@H](C)CCC[C@@H](C)[C@H]1CC[C@H]2C3=CC[C@H]4CC(=O)CC[C@]4(C)C3CC[C@]12C` (stereo partly specified), in [3], the Emax amounted to 11%. Further, the EC50 in series [4] stood at 1.02 µM.

With `C[C@H](CCC[C@H](C)C(=O)NS(C)(=O)=O)[C@H]1CC[C@H]2C3=CC[C@H]4CC(=O)CC[C@]4(C)C3CC[C@]12C` (stereo partly specified), the solubility kinetic in series [5] is over 250 µM. In series [6], the Emax turned out to be 85%. For the same compound, the EC50 worked out at 0.41 µM in [2] and 0.47 µM in [8]. Moreover, the Retention_time in [7] was determined as 7.28 min.

Turning to `C[C@@H](CCC[C@@H](C)[C@H]1CC[C@H]2C3=CC[C@H]4CC(=O)CC[C@]4(C)C3CC[C@]12C)COS(=O)(=O)O` (stereo partly specified), in [3], the Emax is 15%. In [4], the EC50 came out at 7.2 µM.

With `C[C@H](CCC[C@H](C)C(=O)O)[C@H]1CC[C@H]2C3=CC[C@H]4CC(=O)CC[C@]4(C)C3CC[C@]12C` (stereo partly specified), in [5], the solubility kinetic was determined as 4 µM (≈ 1.66 µg/mL). Also, the Emax in series [6] worked out at 100%. Besides, the half-life in series [9] amounted to 17 min. In addition, the EC50 was determined as 0.08 µM in series [2] and 0.09 µM in [8]. Also, in series [7], the Retention_time came out at 8.51 min. The Drug metabolism result in [10] is listed as “Metabolite_Detected”. The Activity result in the series on HepG2 is “Non-Toxic”. Moreover, the remaining at 0.5 h in series [11] was determined as 50%.

With `C[C@H](CCC[C@H](C)C(=O)NS(=O)(=O)N(C)C)[C@H]1CC[C@H]2C3=CC[C@H]4CC(=O)CC[C@]4(C)C3CC[C@]12C` (stereo partly specified), the Emax in series [6] was determined as 95%. For the same compound, the EC50 in series [2] was determined as 0.65 µM.

Turning to `Cc1ccc(S(=O)(=O)NC(=O)[C@@H](C)CCC[C@@H](C)[C@H]2CC[C@H]3C4=CC[C@H]5CC(=O)CC[C@]5(C)C4CC[C@]23C)cc1` (stereo partly specified), in series [6], the Emax came to 40%. Moreover, the EC50 in series [2] is 4.7 µM.

Regarding `C[C@H](CCCC1=C(O)CCC1=O)[C@H]1CC[C@H]2C3=CC[C@H]4CC(=O)CC[C@]4(C)C3CC[C@]12C` (stereo partly specified), the IC50 in series [1] stood at 16.8 µM. Further, in [2], the concentration for a half-maximal effect (EC50) is over 100 µM.

In the case of `C[C@H](CCCc1nnn(C)n1)[C@H]1CC[C@H]2C3=CC[C@H]4CC(=O)CC[C@]4(C)C3CC[C@]12C` (stereo partly specified), the IC50 in series [1] came to 17.9 µM. For the same compound, in [2], the 50% effective concentration (EC50) was over 100 µM.

As for `C[C@H](CCc1nnn(C(c2ccccc2)(c2ccccc2)c2ccccc2)n1)[C@H]1CC[C@H]2C3=CC[C@H]4CC(=O)CC[C@]4(C)C3CC[C@]12C` (stereo partly specified), in [1], the concentration for half-maximal inhibition (IC50) came out at 60 µM. Further, the concentration for a half-maximal effect (EC50) in series [2] is over 100 µM.

For `C[C@H](CCc1nnn(C(C)(C)C)n1)[C@H]1CC[C@H]2C3=CC[C@H]4CC(=O)CC[C@]4(C)C3CC[C@]12C` (stereo partly specified), the IC50 in series [1] stood at 7.8 µM. Also, the EC50 in [2] was over 100 µM.

Consider `C[C@H](CO)CCC[C@@H](C)[C@H]1CC[C@H]2C3=CC[C@H]4CC(=O)CC[C@]4(C)C3CC[C@]12C` (stereo partly specified), for which the Emax in series [3] amounted to 36%. Moreover, the EC50 in series [4] was determined as 1.02 µM.

Turning to `C[C@H](CCc1nn[nH]n1)[C@H]1CC[C@H]2C3=CC[C@H]4CC(=O)CC[C@]4(C)C3CC[C@]12C` (stereo partly specified), in series [1], the IC50 amounted to 6.9 µM. Further, the EC50 in series [2] was over 100 µM.

(Values after ChEMBL document CHEMBL5518214, “Discovery and Structure-Activity Relationships of Novel ssDAF-12 Receptor Modulators” (J Med Chem, 2024).)
